Measurements taken from patent US20230092679A1, “MCL-1 INHIBITOR ANTIBODY-DRUG CONJUGATES AND METHODS OF USE” (NOVARTIS AG, priority 2019, published 2023).

Key:
KMS21 BM cells [1] = experiment: Cell viability CTG assay, anti-CD46-Mcl-1 ADC (Example 14); format: cell-based; conditions: 72h
Experimental: KMS21 BM cells were cultivated in RPM11640 supplemented with 10% heat inactivated fetal bovine serum, penicillin (100 IU/ml), streptomycin (100 μg/ml) and L-glutamine (2 mM), at 37° C. in a humidified atmosphere containing 5% CO2. KMS21 BM cells were seeded in 96 microwell plates and exposed to the ADCs for 72h (3.16 fold serially diluted; 9 concentrations each, triplicates). […] All the conditions were tested in triplicates. Luminescence was quantified on a multipurpose plate reader. IC50s (Table 33) were calculated using standard four-parametric curve fitting. […] Each experiment was performed at least twice, with results being reproducible.

KMS21 BM cells [2] = experiment: CTG cell viability assay, KMS21 BM cells; format: cell-based; conditions: FIG. 18
Experimental: Cell viability may also be measured, e.g., by quantifying ATP, an indicator of metabolically active cells. In some embodiments, in vitro potency and/or cell viability of prepared ADCs or Mcl-1 inhibitor compounds may be assessed using a CellTiter-Glo® (CTG) cell viability assay, as described in the examples provided herein. In this assay, in some embodiments, the single reagent (CellTiter-Glo® Reagent) is added directly to cells cultured in serum-supplemented medium. The addition of reagent results in cell lysis and generation of a luminescent signal proportional to the amount of ATP present. The amount of ATP is directly proportional to the number of cells present in culture

## COc1ccccc1-c1nccc(COc2ccccc2C[C@@H](Oc2ncnc3sc(-c4ccc(F)cc4)c(-c4ccc(OCCN5CCN(C)CC5)c(Cl)c4C)c23)C(=O)O)n1 [C1, (2R)-2-[(5Sa)-5-[3-chloro-2-methyl-4-[2-(4-methylpiperazin-1-yl)ethoxy]phenyl]-6-(4-fluorophenyl)thieno[2,3-d]pyrimidin-4-yl]oxy-3-[2-[[2-(2-methoxyphenyl)pyrimidin-4-yl]methoxy]phenyl]propanoic acid]
KMS21 BM cells [1]; FIG. 18
  viability of KMS21 BM cells in CTG assay, in words: dose dependent decrease in the viability
KMS21 BM cells [1]; KMS-21BM, KMS21BM cell line, CTG
  IC50: 2.31 nM
KMS21 BM cells [2]
  viability of KMS21 BM cells: dose dependent decrease in the viability
